Experimental data taken from patent US20200038513A1, “MODULATORS OF FAK PROTEOLYSIS AND ASSOCIATED METHODS OF USE” (ARVINAS OPERATIONS, INC., priority 2018, published 2020).
Where two headings read alike, the source gives them in different places.

Tests used:
[1] = Pharmacokinetics of intraperitoneal or intravenous injection in CD1 mice; assay type: in vivo; conditions: for Conc. (ng/mL) Mouse 2 / Conc. (ng/mL) Mouse 1 / Conc. (ng/mL) Mouse 3 / concentration at 0.25 h / concentration at 0.5 h / concentration at 1 h / concentration at 2 h / concentration at 4 h / concentration at 8 h / concentration at 24 h / concentration at 0.033 h / concentration at 0.083 h: CD1 mice plasma; for concentration at 0.25 h / concentration at 0.5 h / concentration at 1 h / concentration at 2 h / concentration at 4 h / concentration at 8 h / concentration at 24 h / AUC(0-t) / half-life / concentration at 0.033 h / concentration at 0.083 h: male, CD1, mouse, plasma
Summary of the method: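 Male CD1 mice, 6-8 weeks old, 3 per group, dosed IV (5 s injection; 10% HP-b-CD, 40 mM sodium acetate, 40 mM NaCl, pH 4.5) or IP (5% EtOH, 5% Solutol HS15 in D5W). Serial dorsal metatarsal vein blood, terminal heart puncture; plasma analysed by LC/MS/MS after acetonitrile precipitation, calibration 1-2000 ng/mL.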

[2] = PPB; assay type: in vitro ADME; conditions: plasma
[3] = ip, 10 mg/kg, IP 10 mg/kg, read-out: Conc. (ng/mL) Mouse 1
[4] = ip, 10 mg/kg, IP 10 mg/kg, read-out: Conc. (ng/mL) Mouse 2
[5] = ip, 10 mg/kg, IP 10 mg/kg, read-out: Conc. (ng/mL) Mouse 3
[6] = ip, 10 mg/kg, IP 10 mg/kg, read-out: Mean
[7] = iv, 1 mg/kg, IV 1.0 mg/kg, read-out: Conc. (ng/mL) Mouse 1
[8] = iv, 1 mg/kg, IV 1.0 mg/kg, read-out: Conc. (ng/mL) Mouse 2
[9] = iv, 1 mg/kg, IV 1.0 mg/kg, read-out: Conc. (ng/mL) Mouse 3
[10] = iv, 1 mg/kg, IV 1.0 mg/kg, read-out: Mean

- Conc. (ng/mL) Mouse 2 ([1]; IP 10 mg/kg, 24 h): BLOQ
- Conc. (ng/mL) Mouse 1 ([1]; IV 1.0 mg/kg, 8 h): BLOQ
- Conc. (ng/mL) Mouse 2 ([1]; IV 1.0 mg/kg, 8 h): BLOQ
- Conc. (ng/mL) Mouse 3 ([1]; IV 1.0 mg/kg, 8 h): BLOQ
- Conc. (ng/mL) Mouse 1 ([1]; IV 1.0 mg/kg, 24 h): BLOQ
- Conc. (ng/mL) Mouse 2 ([1]; IV 1.0 mg/kg, 24 h): BLOQ
- Conc. (ng/mL) Mouse 3 ([1]; IV 1.0 mg/kg, 24 h): BLOQ
- concentration at 0.25 h [1, 3]: 252 ng/mL
- concentration at 0.25 h [1, 4]: 402 ng/mL
- concentration at 0.25 h [1, 5]: 374 ng/mL
- concentration at 0.25 h [1, 6]: 343 ng/mL
- concentration at 0.5 h [1, 3]: 362 ng/mL
- concentration at 0.5 h [1, 4]: 467 ng/mL
- concentration at 0.5 h [1, 5]: 373 ng/mL
- concentration at 0.5 h [1, 6]: 401 ng/mL
- concentration at 1 h [1, 3]: 648 ng/mL
- concentration at 1 h [1, 4]: 1550 ng/mL
- concentration at 1 h [1, 5]: 2480 ng/mL
- concentration at 1 h [1, 6]: 1560 ng/mL
- concentration at 2 h [1, 3]: 764 ng/mL
- concentration at 2 h [1, 4]: 1750 ng/mL
- concentration at 2 h [1, 5]: 1610 ng/mL
- concentration at 2 h [1, 6]: 1380 ng/mL
- concentration at 4 h [1, 3]: 362 ng/mL
- concentration at 4 h [1, 4]: 625 ng/mL
- concentration at 4 h [1, 5]: 510 ng/mL
- concentration at 4 h [1, 6]: 499 ng/mL
- concentration at 8 h ([1]; ip, 10 mg/kg, IP 10 mg/kg, 8 h, read-out: Conc. (ng/mL) Mouse 1): 95.4 ng/mL
- concentration at 8 h ([1]; ip, 10 mg/kg, IP 10 mg/kg, 8 h, read-out: Conc. (ng/mL) Mouse 2): 111 ng/mL
- concentration at 8 h ([1]; ip, 10 mg/kg, IP 10 mg/kg, 8 h, read-out: Conc. (ng/mL) Mouse 3): 151 ng/mL
- concentration at 8 h ([1]; ip, 10 mg/kg, IP 10 mg/kg, 8 h, read-out: Mean): 119 ng/mL
- concentration at 24 h ([1]; ip, 10 mg/kg, IP 10 mg/kg, 24 h, read-out: Conc. (ng/mL) Mouse 1): 1.35 ng/mL
- concentration at 24 h ([1]; ip, 10 mg/kg, IP 10 mg/kg, 24 h, read-out: Conc. (ng/mL) Mouse 3): 1.56 ng/mL
- concentration at 24 h ([1]; ip, 10 mg/kg, IP 10 mg/kg, 24 h, read-out: Mean): 1.46 ng/mL
- AUC(0-t) ([1]; ip, 10 mg/kg, read-out: AUClast (h * ng/mL) IP): 5870 ng·h/mL
- half-life ([1]; ip, 10 mg/kg, read-out: T ½ (h) IP (converted)): 2.15 h
- concentration at 0.033 h [1, 7]: 1320 ng/mL
- concentration at 0.033 h [1, 8]: 1390 ng/mL
- concentration at 0.033 h [1, 9]: 1150 ng/mL
- concentration at 0.033 h [1, 10]: 1290 ng/mL
- concentration at 0.083 h [1, 7]: 233 ng/mL
- concentration at 0.083 h [1, 8]: 313 ng/mL
- concentration at 0.083 h [1, 9]: 205 ng/mL
- concentration at 0.083 h [1, 10]: 250 ng/mL
- concentration at 0.25 h [1, 7]: 34.7 ng/mL
- concentration at 0.25 h [1, 8]: 48.2 ng/mL
- concentration at 0.25 h [1, 9]: 36.4 ng/mL
- concentration at 0.25 h [1, 10]: 39.8 ng/mL
- concentration at 0.5 h [1, 7]: 17.4 ng/mL
- concentration at 0.5 h [1, 8]: 27.1 ng/mL
- concentration at 0.5 h [1, 9]: 18 ng/mL
- concentration at 0.5 h [1, 10]: 20.8 ng/mL
- concentration at 1 h [1, 7]: 6.22 ng/mL
- concentration at 1 h [1, 8]: 9.77 ng/mL
- concentration at 1 h [1, 9]: 8.79 ng/mL
- concentration at 1 h [1, 10]: 8.26 ng/mL
- concentration at 2 h [1, 7]: 3.27 ng/mL
- concentration at 2 h [1, 8]: 5.86 ng/mL
- concentration at 2 h [1, 9]: 3.98 ng/mL
- concentration at 2 h [1, 10]: 4.37 ng/mL
- concentration at 4 h [1, 7]: 1.84 ng/mL
- concentration at 4 h [1, 8]: 4.11 ng/mL
- concentration at 4 h [1, 9]: 2.13 ng/mL
- concentration at 4 h [1, 10]: 2.69 ng/mL
- AUC(0-t) ([1]; iv, 1 mg/kg, read-out: AUClast (h * ng/mL) IV): 175 ng·h/mL
- half-life ([1]; iv, 1 mg/kg, read-out: T ½ (h) IV (converted)): 1.95 h
- fraction unbound [2]: 0.008
SMILES: Cc1ncsc1-c1ccc(CNC(=O)[C@@H]2C[C@@H](O)CN2C(=O)[C@@H](NC(=O)COCCOc2ccc(Nc3ncc(C(F)(F)F)c(NCc4cccc(N(C)S(C)(=O)=O)c4)n3)cc2)C(C)(C)C)cc1 [Compound 100, (2S,4R)-1-((S)-3,3-dimethyl-2-(2-(2-(4-((4-((3-(N-methylmethylsulfonamido)benzyl)amino)-5-(trifluoromethyl)pyrimidin-2-yl)amino)phenoxy)ethoxy)acetamido)butanoyl)-4-hydroxy-N-(4-(4-methylthiazol-5-yl)benzyl)pyrrolidine-2-carboxamide]
